Where “and” joins values, the source holds several entries; their conditions need not be identical. Equal entries are not always repeated. Inconclusive results and toxic doses are left out. The calls were made as follows: active = survival T/C of 150% or more; inactive = T/C below 125% in these data.
System: P388 leukemia ip, CD2F1 mice, survival T/C
Test: NCI In Vivo Anticancer Drug Screen. Data for tumor model P388 Leukemia (intraperitoneal) in CD2F1 (CDF1) mice
Details: endpoint: median survival time, higher = longer survival
Summary of the method: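 Mice carrying the transplanted tumor received test compound or vehicle. Survival was recorded in each group, and the value is the treated-group measurement divided by that of the vehicle-treated control group.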

[1] = dose: 50.0 mg/kg/injection, schedule: Q04DX003 (ip), vehicle: saline with Tween-80
[2] = dose: 100.0 mg/kg/injection, schedule: Q04DX003 (ip), vehicle: saline with Tween-80
[3] = dose: 50.0 mg/kg/injection, schedule: Q01DX005 (ip), vehicle: saline with Tween-80
[4] = dose: 100.0 mg/kg/injection, schedule: Q01DX005 (ip), vehicle: saline with Tween-80
[5] = dose: 200.0 mg/kg/injection, schedule: Q01DX005 (ip), vehicle: saline with Tween-80
[6] = dose: 50.0 mg/kg/injection, schedule: Q01DX005 (ip), vehicle: Klucel (hydroxypropylcellulose) (HPC)
[7] = dose: 100.0 mg/kg/injection, schedule: Q01DX005 (ip), vehicle: Klucel (hydroxypropylcellulose) (HPC)
[8] = dose: 200.0 mg/kg/injection, schedule: Q01DX005 (ip), vehicle: Klucel (hydroxypropylcellulose) (HPC)
[9] = dose: 12.5 mg/kg/injection, schedule: Q01DX009 (ip), vehicle: distilled water + Tween-80
[10] = dose: 25.0 mg/kg/injection, schedule: Q01DX009 (ip), vehicle: distilled water + Tween-80

Measured: T/C

N=C(N)N1CCNc2ccccc2C1
inactive: dose: 25.0 mg/kg/injection, schedule: Q04DX003 (ip), vehicle: saline with Tween-80 105 % of control | [1] 99 % of control | [2] 104 % of control

COC(=O)Nc1csc(NC(=O)OC)n1
inactive: [3] 96 % of control | [4] 95 % of control | [5] 87 % of control

CC(=O)/C=C/C=C/c1ccc2c(c1)OC(CO)C(c1ccc(O)c(O)c1)O2 (stereo not given)
inactive: [6] 95 % of control | [7] 90 % of control and 95 % of control | [8] 87 % of control | dose: 400.0 mg/kg/injection, schedule: Q01DX005 (ip), vehicle: Klucel (hydroxypropylcellulose) (HPC) 87 % of control

COC(=O)C1C(O)CCC2CN3CCc4c([nH]c5cc(OC)ccc45)C3CC21 (stereo not given)
inactive: dose: 20.0 mg/kg/injection, schedule: Q01DX005 (ip), vehicle: DMSO 104 % of control | dose: 40.0 mg/kg/injection, schedule: Q01DX005 (ip), vehicle: DMSO 111 % of control | dose: 80.0 mg/kg/injection, schedule: Q01DX005 (ip), vehicle: DMSO 102 % of control | dose: 160.0 mg/kg/injection, schedule: Q01DX005 (ip), vehicle: DMSO 100 % of control

O=S(=O)(SC(S(=O)(=O)c1ccccc1)S(=O)(=O)c1ccccc1)c1ccccc1
inactive: dose: 200.0 mg/kg/injection, schedule: Q01DX009 (ip), vehicle: Klucel (hydroxypropylcellulose) (HPC) 123 % of control | dose: 400.0 mg/kg/injection, schedule: Q01DX009 (ip), vehicle: Klucel (hydroxypropylcellulose) (HPC) 123 % of control

CCOC(=O)CCSC(=O)NCCCCCCNC(=O)SCCC(=O)OCC
inactive: [6] 98 % of control | [7] 96 % of control | [8] 102 % of control

NCCCC(C(=O)O)N(C(=O)OCc1ccccc1)C(=O)OCc1ccccc1 (stereo not given)
inactive: [3] 97 % of control | [4] 101 % of control | [5] 90 % of control

O=C(Nc1ccc(Sc2ccc(N=Nc3c(O)c(S(=O)(=O)O)cc4cc(S(=O)(=O)O)ccc34)cc2)cc1)c1ccc(N=Nc2cc(S(=O)(=O)O)c3ccccc3c2O)cc1
inactive: [3] 98 % of control | [4] 102 % of control | [5] 98 % of control

NS(=O)(=O)Cc1noc2ccc(F)cc12
inactive: [3] 93 % of control | [4] 104 % of control | [5] 103 % of control

CCC(=O)Nc1nnc(SCCCCCCSc2nnc(NC(=O)CC)s2)s1
inactive: [6] 90 % of control | [7] 88 % of control | [8] 91 % of control

O=C1c2sccc2[C@H](NC(=O)C(F)(F)F)[C@@H]1Cl
inactive: dose: 60.0 mg/kg/injection, schedule: Q01DX005 (ip), vehicle: saline with Tween-80 100 % of control | dose: 120.0 mg/kg/injection, schedule: Q01DX005 (ip), vehicle: saline with Tween-80 100 % of control | dose: 240.0 mg/kg/injection, schedule: Q01DX005 (ip), vehicle: saline with Tween-80 100 % of control

C/C(=C/c1nc2ccccc2[nH]1)c1ccccc1
inactive: dose: 25.0 mg/kg/injection, schedule: Q01DX005 (ip), vehicle: saline with Tween-80 100 % of control | [3] 100 % of control and 107 % of control | [4] 121 % of control and 96 % of control | [5] 95 % of control and 96 % of control

CCCCCCC1NC(CCCCCC)N2C(CCCCCC)N12 (stereo not given)
inactive: dose: 100.0 mg/kg/injection, schedule: Q04DX003 (ip), vehicle: Klucel (hydroxypropylcellulose) (HPC) 101 % of control | dose: 200.0 mg/kg/injection, schedule: Q04DX003 (ip), vehicle: Klucel (hydroxypropylcellulose) (HPC) 97 % of control | dose: 400.0 mg/kg/injection, schedule: Q04DX003 (ip), vehicle: Klucel (hydroxypropylcellulose) (HPC) 93 % of control

C=C(Br)CC(N)C(=O)O (stereo not given)
inactive: [6] 116 % of control | [7] 106 % of control

CNC(=O)N(C)c1nc(-c2ccccc2)c(-c2ccccc2)n1Cc1ccc(Cl)cc1
inactive: dose: 50.0 mg/kg/injection, schedule: Q04DX002 (ip), vehicle: saline with Tween-80 94 % of control | dose: 100.0 mg/kg/injection, schedule: Q04DX002 (ip), vehicle: saline with Tween-80 99 % of control | dose: 200.0 mg/kg/injection, schedule: Q04DX002 (ip), vehicle: saline with Tween-80 92 % of control

CCNC(=O)N(CC(N)=O)c1ncc([N+](=O)[O-])s1
inactive: dose: 6.25 mg/kg/injection, schedule: Q01DX001 (ip), vehicle: saline 105 % of control | dose: 12.5 mg/kg/injection, schedule: Q01DX001 (ip), vehicle: saline 103 % of control | dose: 25.0 mg/kg/injection, schedule: Q01DX001 (ip), vehicle: saline 104 % of control | dose: 50.0 mg/kg/injection, schedule: Q01DX001 (ip), vehicle: saline 100 % of control and 103 % of control | dose: 100.0 mg/kg/injection, schedule: Q01DX001 (ip), vehicle: saline 106 % of control and 97 % of control

CCNC(=O)OCC1=C(COC(=O)NCC)C2OC1C(C(=O)OC)=C2C(=O)OC
inactive: dose: 3.13 mg/kg/injection, schedule: Q01DX009 (ip), vehicle: distilled water + Tween-80 100 % of control | dose: 6.25 mg/kg/injection, schedule: Q01DX009 (ip), vehicle: distilled water + Tween-80 98 % of control | [9] 100 % of control and 87 % of control | [10] 109 % of control

C[n+]1c(-c2ccc(/C=N\Nc3nnc(S)n3/N=C/c3ccc(-c4cn5ccccc5[n+]4C)cc3)cc2)cn2ccccc21
inactive: dose: 0.23 mg/kg/injection, schedule: Q01DX005 (ip), vehicle: saline with Tween-80 101 % of control | dose: 0.47 mg/kg/injection, schedule: Q01DX005 (ip), vehicle: saline with Tween-80 92 % of control | dose: 0.94 mg/kg/injection, schedule: Q01DX005 (ip), vehicle: saline with Tween-80 95 % of control | dose: 1.88 mg/kg/injection, schedule: Q01DX005 (ip), vehicle: saline with Tween-80 100 % of control

CN(CCN1C(=O)c2cccc3cc([N+](=O)[O-])cc(c23)C1=O)CCN1C(=O)c2cccc3cc([N+](=O)[O-])cc(c23)C1=O
inactive: [3] 98 % of control | [4] 97 % of control | [5] 114 % of control

O=C1/C(=C/c2ccc(Cl)cc2)SC(=S)N1C1CC1
inactive: dose: 6.25 mg/kg/injection, schedule: Q01DX005 (ip), vehicle: Klucel (hydroxypropylcellulose) (HPC) 91 % of control | dose: 12.5 mg/kg/injection, schedule: Q01DX005 (ip), vehicle: Klucel (hydroxypropylcellulose) (HPC) 96 % of control | dose: 25.0 mg/kg/injection, schedule: Q01DX005 (ip), vehicle: Klucel (hydroxypropylcellulose) (HPC) 95 % of control | [6] 89 % of control

O=C(Nc1ccc([N+](=O)[O-])cc1)Nc1nncs1
inactive: [9] 100 % of control | [10] 107 % of control and 92 % of control | dose: 50.0 mg/kg/injection, schedule: Q01DX009 (ip), vehicle: distilled water + Tween-80 115 % of control and 119 % of control | dose: 100.0 mg/kg/injection, schedule: Q01DX009 (ip), vehicle: distilled water + Tween-80 119 % of control and 124 % of control | dose: 200.0 mg/kg/injection, schedule: Q01DX009 (ip), vehicle: distilled water + Tween-80 110 % of control

c1ccc2c(c1)[nH]c1cc3ccncc3cc12
inactive: [1] 94 % of control | [2] 91 % of control | dose: 200.0 mg/kg/injection, schedule: Q04DX003 (ip), vehicle: saline with Tween-80 87 % of control

COC(CCl)(CBr)OC
inactive: dose: 25.0 mg/kg/injection, schedule: Q01DX009 (ip), vehicle: saline with Tween-80 95 % of control | dose: 50.0 mg/kg/injection, schedule: Q01DX009 (ip), vehicle: saline with Tween-80 97 % of control | dose: 100.0 mg/kg/injection, schedule: Q01DX009 (ip), vehicle: saline with Tween-80 105 % of control

COc1cc(-c2nc(SC)n[nH]2)cc(OC)c1OC
inactive: [6] 95 % of control | [7] 104 % of control | [8] 88 % of control

— PubChem BioAssay AID330 (DTP/NCI, 2004)
